Measured values: patent US20160122320A1, “USEFUL COMBINATIONS OF MONOBACTAM ANTIBIOTICS WITH BETA-LACTAMASE INHIBITORS” (Basilea Pharmaceutica AG, priority 2005, published 2016)
Structures can show the parent of a compound that is named as a salt.

Columns and labels:
Assay in all cases: MIC, NCCLS broth microdilution
Type in all cases: cell-based
Acinetobacter sp. J2 = conditions: Acinetobacter sp. J2; MIC of antibiotic compound 1 with the labelled bridged monobactam of formula II and clavulanate, 4 mg/L each
[1] = test system: Pseudomonas aeruginosa 1973E; conditions: MIC of antibiotic compound 1 with the labelled bridged monobactam of formula II and clavulanate, 4 mg/L each
Method in brief: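 Compounds were serially diluted per NCCLS M7-A5 (final DMSO no more than 1%) and incubated with bacteria overnight at 30° C. or 37° C. Visible growth was then judged by eye. For combinations, partner compounds sat in every well at a constant 4 μg/mL each.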

Enterobacter cloacae P99 = conditions: MIC of antibiotic compound 1 with the labelled bridged monobactam of formula II and clavulanate, 4 mg/L each
[2] = test system: Pseudomonas aeruginosa MK1184; conditions: MIC of antibiotic compound 1 with the labelled bridged monobactam of formula II and clavulanate, 4 mg/L each
[3] = test system: Stenotrophomonas malthophilia 1AC736; conditions: Stenotrophomonas malthophilia 1AC736; MIC of antibiotic compound 1 with the labelled bridged monobactam of formula II and clavulanate, 4 mg/L each
Method: Antimicrobial activity of the compounds and of their combinations was determined against a selection of organisms according to the standard procedures described by the National Committee for Clinical Laboratory Standards (National Committee for Clinical Laboratory. Standards (2000). Methods for Dilution Antimicrobial Susceptibility Tests for Bacteria That Grow Aerobically-Fifth Edition: Approved Standard M7-A5. NCCLS, Wayne, Pa., USA).
In all cases the final concentration of DMSO incubated with the bacteria is less than or equal to 1%. […] Plates were incubated overnight at an appropriate temperature (30° C. or 37° C.) and optical densities assessed by eye. The MIC value is defined as the lowest compound concentration completely inhibiting visible growth of the test organism. When combinations between compounds of formula I with compounds of formula II and are evaluated the compounds of formula I are tested in dilution series as described above while the compounds of formula II and III-XIII were present in all wells at a constant concentration of 4 μg/mL each.

[4] = test system: Klebsiella pneumoniae CF104; conditions: MIC of antibiotic compound 1 with the labelled bridged monobactam of formula II and clavulanate, 4 mg/L each
Serratia marcescens S6 = conditions: MIC of antibiotic compound 1 with the labelled bridged monobactam of formula II and clavulanate, 4 mg/L each

SMILES | MIC of antibiotic at fixed inhibitor concentration (4 mg/L) (Acinetobacter sp. J2) [µg/mL] | MIC of antibiotic at fixed inhibitor concentration (4 mg/L) [1] [µg/mL] | MIC of antibiotic at fixed inhibitor concentration (4 mg/L) (Enterobacter cloacae P99) [µg/mL] | MIC of antibiotic at fixed inhibitor concentration (4 mg/L) [2] [µg/mL] | MIC of antibiotic at fixed inhibitor concentration (4 mg/L) [3] [µg/mL] | MIC of antibiotic at fixed inhibitor concentration (4 mg/L) [4] | MIC of antibiotic at fixed inhibitor concentration (4 mg/L) (Serratia marcescens S6) [µg/mL]
NC(=O)c1ccc[n+](CC(=O)N2CC[C@@H]3[C@H]2C(=O)N3S(=O)(=O)[O-])c1 [Compound 102, (1S,5R)-2-[2-β-carbamoylpyridinium)acetyl]-7-oxo-2,6-diazabicyclo[3.2.0]heptane-6-sulfonate, inner salt] | 4 | 2 | 4 | 4 | 0.125 | 1 µg/mL | 0.25
Nc1cc[n+](CC(=O)N2CC[C@@H]3[C@H]2C(=O)N3S(=O)(=O)[O-])cc1 [Compound 103, (1S,5R)-2-[2-(4-aminopyridinium)acetyl]-7-oxo-2,6-diazabicyclo[3.2.0]heptane-6-sulfonate, inner salt] | 8 | 4 | 32 | 8 | 0.125 | 0.5 µg/mL | 0.25
O=C(C[n+]1ccc2ccccc2c1)N1CC[C@@H]2[C@H]1C(=O)N2S(=O)(=O)[O-] [Compound 104, (1S,5R)-2-(2-(2-isoquinolinium)acetyl)-7-oxo-2,6-diazabicyclo[3.2.0]heptane-6-sulfonate, inner salt] | >32 | 4 | 32 | 32 | 0.125 | 0.5 µg/mL | 2
NC(=O)c1cc[n+](CC(=O)N2CC[C@@H]3[C@H]2C(=O)N3S(=O)(=O)[O-])cc1 [Compound 105, (1S,5R)-2-[2-(4-carbamoylpyridinium)acetyl]-7-oxo-2,6-diazabicyclo[3.2.0]heptane-6-sulfonate, inner salt] | 8 | 8 | 32 | 16 | 0.125 | 0.5 µg/mL | 0.125
O=C(C[n+]1ccc2c(c1)CCCC2)N1CC[C@@H]2[C@H]1C(=O)N2S(=O)(=O)[O-] [Compound 106, (1S,5R)-7-oxo-2-(2-(2-5,6,7,8-tetrahydroisoquinolinium)acetyl)-2,6-diazabicyclo[3.2.0]heptane-6-sulfonate, inner salt] | >32 | 4 | >32 | 32 | 0.125 | 0.25 µg/mL | 0.25
Nc1ccc[n+](CC(=O)N2CC[C@@H]3[C@H]2C(=O)N3S(=O)(=O)[O-])c1 [Compound 107, (1S,5R)-2-[2-(3-aminopyridinium)acetyl]-7-oxo-2,6-diazabicyclo[3.2.0]heptane-6-sulfonate, inner salt] | 8 | 4 | 32 | 8 | 0.125 | 1 µg/mL | 0.125
NC(=O)CNC(=O)c1ccc[n+](CC(=O)N2CC[C@@H]3[C@H]2C(=O)N3S(=O)(=O)[O-])c1 [Compound 108, (1S,5R)-2-(2-{3-[N-(carbamoylmethyl)carbamoyl]pyridinium}acetyl)-7-oxo-2,6-diazabicyclo[3.2.0]heptane-6-sulfonate, inner salt] | >32 | 4 | 4 | >32 | 0.125 | 1 µg/mL | 0.25
O=C(NC1CC1)c1ccc[n+](CC(=O)N2CC[C@@H]3[C@H]2C(=O)N3S(=O)(=O)[O-])c1 [Compound 109, (1S,5R)-2-{2-[3-(N-cyclopropylcarbamoyl)pyridinium]acetyl}-7-oxo-2,6-diazabicyclo[3.2.0]heptane-6-sulfonate, inner salt] | 4 | 4 | 32 | 16 | 0.125 | 0.5 µg/mL | 0.125
NC(=O)c1cc[n+](CC(=O)N2CC[C@@H]3[C@H]2C(=O)N3S(=O)(=O)[O-])cc1C(N)=O [Compound 110, (1S,5R)-2-[2-(3,4-dicarbamoylpyridinium)acetyl]-7-oxo-2,6-diazabicyclo[3.2.0]heptane-6-sulfonate, inner salt] | 2 | 4 | >32 | 32 | 0.125 | 0.125 µg/mL | 0.25
Cc1ccc(C(N)=O)c[n+]1CC(=O)N1CC[C@@H]2[C@H]1C(=O)N2S(=O)(=O)[O-] [Compound 111, (1S,5R)-2-[2-(3-carbamoyl-6-methylpyridinium)acetyl]-7-oxo-2,6-diazabicyclo[3.2.0]heptane-6-sulfonate, inner salt] | 4 | 4 | 4 | 8 | 0.125 | <0.06 µg/mL | 0.25
CN(C)c1cc[n+](CC(=O)N2CC[C@@H]3[C@H]2C(=O)N3S(=O)(=O)[O-])cc1 [Compound 112, (1S,5R)-2-{2-[4-(dimethylamino)pyridinium]acetyl}-7-oxo-2,6-diazabicyclo[3.2.0]heptane-6-sulfonate, inner salt] | 16 | 8 | >32 | >32 | 0.125 | <=0.06 mg/L | 0.5
